Measured values published in patent publication US4931440A, “Uricosuric composition” (Fujisawa Pharmaceutical Company, Ltd., priority 1987, dated 1990).

How the values were obtained:
[1] = Acute toxicity, oral, 14 days observation; details: rat, in vivo, male SD rats
Excerpt: Male SD rats (5 animals per group) were orally dosed with a suspension of the test compound in 0.5% methylcellulose solution and observed for 14 days after oral administration.

[2] = Uricosuric action: serum uric acid level in healthy male adult volunteers; assay type: in vivo, humans; details: single oral dose 600 mg (two capsules of Example 1), N = 6
Description: Compound A, in a single dose of 600 mg (two capsules according to the example (1) given hereinafter), was administered orally to six humans (healthy male adult volunteers) and the serum uric acid level was determined for 48 hours after administration.

[3] = Effect on uric acid excretion in female rats (urinary uric acid assayed by HPLC); assay type: in vivo, female SD rats; details: p.o., urine collected 0-6 hr, dose 0: 3.07 ± 0.44
Description: Female SD rats (6 weeks old) were fasted for 18 hours and submitted to the test (3 animals per group).
Compound B was suspended in 0.5% methylcellulose solution and the suspension was orally administered in a dosing volume of 5 ml/kg.
At the same time, the animals were orally loaded with 20 ml/kg of physiological saline. Urine samples were collected up to 6 hours after drug administration. The uric acid in each urine sample was assayed by HPLC.

| Compound | LD50 at 336 h [1] [mg/kg] | Serum uric acid concentration, mean ± standard deviation ([2]; 4 Hrs. after administration, *: significant decrease from baseline (5.5500 ± 0.9439), < 0.05) [mg/dL] | Serum uric acid concentration, mean ± standard deviation ([2]; 8 Hrs. after administration, **: significant decrease from baseline (5.5500 ± 0.9439), P < 0.01) [mg/dL] | Serum uric acid concentration, mean ± standard deviation ([2]; 12 Hrs. after administration, **: significant decrease from baseline (5.5500 ± 0.9439), P < 0.01) [mg/dL] | Serum uric acid concentration, mean ± standard deviation ([2]; 24 Hrs. after administration, *: significant decrease from baseline (5.5500 ± 0.9439), < 0.05) [mg/dL] | Serum uric acid concentration, mean ± standard deviation ([2]; 48 Hrs. after administration, *: significant decrease from baseline (5.5500 ± 0.9439), < 0.05) [mg/dL] | Excretion of uric acid, mean ± S.E. ([3]; 10 mg/kg) [mg/kg] | Excretion of uric acid, mean ± S.E. ([3]; 100 mg/kg) [mg/kg] | Excretion of uric acid, mean ± S.E. ([3]; 320 mg/kg, *: P < 0.05) [mg/kg] |
| --- | --- | --- | --- | --- | --- | --- | --- | --- | --- |
| O=C(O)Cn1c(=O)n(Cc2ccc(Br)cc2F)c(=O)c2ccc(Cl)cc21 [Compound A] | 4250 | 4.5000 ± 0.6542 | 4.0333 ± 0.6250 | 4.1667 ± 0.7448 | 4.3167 ± 0.7360 | 4.5167 ± 0.5981 |  |  |  |
| O=C(O)Cn1c(=O)n(Cc2ccc(Br)cc2F)c(=O)c2ccc(F)cc21 [Compound B, 2-[7-Fluoro-3-(4-bromo-2-fluorobenzyl)-1,2,3,4-tetrahydro-2,4-dioxoquinazolin-1-yl]acetic acid] | 2140 |  |  |  |  |  | 3.36 ± 0.14 | 4.02 ± 0.18 | 4.88 ± 0.24 |
